Patent US20230265151A1, “GIP/GLP1 CO-AGONIST COMPOUNDS” (priority 2020, published 2023)
Like-named read-outs stand apart in the source and are kept apart here.

How the values were obtained:
Assay type in all cases: cell-based
hGCGR = target: T1, hGCGR (Homo sapiens, UniProt P47871); experiment: Functional cAMP formation (HTRF) in HEK-293 clonal cells expressing hGCGR, 0.1% bovine casein, without or with 1.0% human serum albumin
T1 construct: expressed in transfected cells
Method in brief: (§1)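 Cells were stimulated with peptide for 30 min at 37° C, then intracellular cAMP was measured by competitive HTRF (665/620 nm ratio) and converted to nM using a cAMP standard curve. Relative EC50 and Emax came from four-parameter logistic fits of percent maximal response against peptide concentration.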

hGIPR = target: T2, hGIPR (Homo sapiens, UniProt P48546); experiment: Functional cAMP formation (HTRF) in HEK-293 clonal cells expressing hGIPR, 0.1% bovine casein, without or with 1.0% human serum albumin; details: for EC50: geometric mean
T2 construct: expressed in transfected cells
T2 sequence (P48546 22-466): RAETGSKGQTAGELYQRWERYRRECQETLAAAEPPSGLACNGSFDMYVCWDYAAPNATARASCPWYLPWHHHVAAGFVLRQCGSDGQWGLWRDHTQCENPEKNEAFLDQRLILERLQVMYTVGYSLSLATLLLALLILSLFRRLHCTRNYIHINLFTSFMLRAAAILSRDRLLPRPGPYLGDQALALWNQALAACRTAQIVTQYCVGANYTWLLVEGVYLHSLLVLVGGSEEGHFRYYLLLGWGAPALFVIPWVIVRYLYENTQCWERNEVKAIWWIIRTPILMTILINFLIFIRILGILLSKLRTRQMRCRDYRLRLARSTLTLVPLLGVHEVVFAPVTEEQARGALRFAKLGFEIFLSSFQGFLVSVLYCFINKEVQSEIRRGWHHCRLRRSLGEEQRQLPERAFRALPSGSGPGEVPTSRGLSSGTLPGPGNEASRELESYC
Method in brief: as §1

hGLP-1R = hGLP-1R (Homo sapiens, UniProt P43220); experiment: Functional cAMP formation (HTRF) in HEK-293 clonal cells expressing hGLP-1R, 0.1% bovine casein, without or with 1.0% human serum albumin; parameters: expressed in transfected cells; details: for Emax: percent of maximal response to GLP-1(7-36)NH2; for EC50: cAMP, 0.1% bovine casein (no human serum albumin), geometric mean
Sequence of hGLP-1R (P43220 24-463): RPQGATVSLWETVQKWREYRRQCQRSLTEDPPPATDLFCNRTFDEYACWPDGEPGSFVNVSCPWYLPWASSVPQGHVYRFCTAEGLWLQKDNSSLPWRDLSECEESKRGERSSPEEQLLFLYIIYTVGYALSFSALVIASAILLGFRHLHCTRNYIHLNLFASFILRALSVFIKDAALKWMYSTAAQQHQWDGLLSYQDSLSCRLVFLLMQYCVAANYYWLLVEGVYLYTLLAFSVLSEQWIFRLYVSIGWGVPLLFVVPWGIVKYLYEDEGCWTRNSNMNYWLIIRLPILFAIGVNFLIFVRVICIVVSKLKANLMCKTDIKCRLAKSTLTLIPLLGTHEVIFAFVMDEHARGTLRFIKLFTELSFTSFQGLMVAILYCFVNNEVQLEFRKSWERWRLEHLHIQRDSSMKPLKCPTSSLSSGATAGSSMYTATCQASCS
Method in brief: as §1

[1] = cAMP, 37° C., 0.1% bovine casein (no human serum albumin), geometric mean, read-out: hGCGR EC50, nM (SEM, n)
[2] = cAMP, 37° C., 0.1% bovine casein (no human serum albumin), read-out: hGIPR EC50, nM (SEM, n)
[3] = HEK293, cAMP, 37° C., 0.1% bovine casein, arithmetic mean, read-out: hGLP-1R Emax, % ± SEM
[4] = 37° C., read-out: hGLP-1R EC50, nM (SEM, n)

T1 sequence (P47871 26-477): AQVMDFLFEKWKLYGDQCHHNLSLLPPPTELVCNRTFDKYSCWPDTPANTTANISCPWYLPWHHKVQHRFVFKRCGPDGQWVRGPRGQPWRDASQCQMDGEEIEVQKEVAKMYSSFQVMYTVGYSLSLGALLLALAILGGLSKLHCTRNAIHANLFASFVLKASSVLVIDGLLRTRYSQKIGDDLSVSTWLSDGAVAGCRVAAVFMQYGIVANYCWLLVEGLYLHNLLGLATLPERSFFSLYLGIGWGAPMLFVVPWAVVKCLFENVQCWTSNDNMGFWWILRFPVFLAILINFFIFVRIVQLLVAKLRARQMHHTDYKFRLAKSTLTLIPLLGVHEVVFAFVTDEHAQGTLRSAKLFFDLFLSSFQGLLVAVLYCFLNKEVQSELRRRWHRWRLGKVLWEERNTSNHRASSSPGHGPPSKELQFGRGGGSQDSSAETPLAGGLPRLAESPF

CC[C@H](C)[C@H](NC(=O)[C@H](CC(C)C)NC(=O)[C@](C)(Cc1ccc(O)cc1)NC(=O)[C@H](CCCCNC(=O)COCCOCCNC(=O)COCCOCCNC(=O)CC[C@H](NC(=O)CCCCCCCCCCCCCCC(=O)O)C(=O)O)NC(=O)[C@@H](NC(=O)[C@H](Cc1ccccc1)NC(=O)[C@H](CCCN)NC(=O)C(C)(C)NC(=O)[C@H](CCC(N)=O)NC(=O)[C@H](C)NC(=O)[C@H](CCC(N)=O)NC(=O)[C@H](CCCN)NC(=O)[C@H](CC(=O)O)NC(=O)[C@H](CC(C)C)NC(=O)[C@](C)(CC(C)C)NC(=O)[C@@H](NC(=O)C(C)(C)NC(=O)[C@H](Cc1ccncc1)NC(=O)[C@H](CC(=O)O)NC(=O)[C@H](CO)NC(=O)[C@@H](NC(=O)[C@](C)(Cc1ccccc1F)NC(=O)[C@@H](NC(=O)CNC(=O)[C@H](CCC(=O)O)NC(=O)C(C)(C)NC(=O)[C@@H](N)Cc1ccc(O)cc1)[C@@H](C)O)[C@@H](C)O)[C@@H](C)CC)[C@@H](C)CC)C(=O)N[C@@H](CCCCNC(=O)COCCOCCNC(=O)COCCOCCNC(=O)CC[C@H](NC(=O)CCCCCCCCCCCCCCC(=O)O)C(=O)O)C(=O)NCC(=O)NCC(=O)N1CCC[C@H]1C(=O)N[C@@H](CO)C(=O)N[C@@H](CO)C(=O)NCC(=O)N[C@@H](C)C(=O)N1CCC[C@H]1C(=O)N1CCC[C@H]1C(=O)N1CCC[C@H]1C(=O)N[C@@H](CO)C(N)=O [Example 443]
EC50 (hGCGR; [1]): > 9950 nM
EC50 (hGCGR; cAMP, 37° C., 0.1% bovine casein and 1.0% human serum albumin, geometric mean (SEM, n), read-out: hGCGR EC50, nM (SEM, n)): > 9950 nM
Emax (hGIPR; HEK293, cAMP, 37° C., 0.1% bovine casein and 1.0% human serum albumin, percent of maximal response to GIP(1-42)NH2, read-out: hGIPR Emax, % ± SEM): 91.1%
EC50 (hGIPR; [2]): 0.0178 nM
Emax (hGLP-1R; [3]): 114%
EC50 (hGLP-1R; [4]): 0.294 nM

CC[C@H](C)[C@H](NC(=O)[C@H](CC(C)C)NC(=O)[C@](C)(Cc1ccc(O)cc1)NC(=O)[C@@H](CCC(=O)O)NC(=O)[C@@H](NC(=O)[C@H](Cc1ccccc1)NC(=O)[C@H](CCCCNC(=O)COCCOCCNC(=O)COCCOCCNC(=O)CCCCCCCCCOc1ccc(C(=O)O)cc1)NC(=O)C(C)(C)NC(=O)[C@H](CCC(N)=O)NC(=O)[C@H](C)NC(=O)[C@H](CCCCNC(=O)COCCOCCNC(=O)COCCOCCNC(=O)CCCCCCCCCOc1ccc(C(=O)O)cc1)NC(=O)[C@H](CCCN)NC(=O)[C@H](CC(=O)O)NC(=O)[C@H](CC(C)C)NC(=O)[C@](C)(CC(C)C)NC(=O)[C@@H](NC(=O)C(C)(C)NC(=O)[C@H](Cc1ccncc1)NC(=O)[C@H](CC(=O)O)NC(=O)[C@H](CO)NC(=O)[C@@H](NC(=O)[C@](C)(Cc1ccccc1F)NC(=O)[C@@H](NC(=O)CNC(=O)[C@H](CCC(=O)O)NC(=O)C(C)(C)NC(=O)[C@@H](N)Cc1ccc(O)cc1)[C@@H](C)O)[C@@H](C)O)[C@@H](C)CC)[C@@H](C)CC)C(=O)N[C@@H](CCC(=O)O)C(=O)NCC(=O)NCC(=O)N1CCC[C@H]1C(=O)N[C@@H](CO)C(=O)N[C@@H](CO)C(=O)NCC(=O)N[C@@H](C)C(=O)N1CCC[C@H]1C(=O)N1CCC[C@H]1C(=O)N1CCC[C@H]1C(=O)N[C@@H](CO)C(N)=O [Example 392]
EC50 (hGCGR; hGCGR EC50, nM (SEM, n), cAMP, 37° C., 0.1% bovine casein (no human serum albumin), geometric mean): > 9950 nM
EC50 (hGCGR; hGCGR EC50, nM (SEM, n), cAMP, 37° C., 0.1% bovine casein and 1.0% human serum albumin, geometric mean (SEM, n)): > 9950 nM
Emax (hGIPR; HEK293, read-out: hGIPR Emax, % ± SEM, cAMP, 37° C., 0.1% bovine casein and 1.0% human serum albumin, percent of maximal response to GIP(1-42)NH2): 85.7%
Emax (hGIPR; HEK293, read-out: hGIPR Emax, % ± SEM, cAMP, 37° C., 0.1% bovine casein, percent of maximal response to GIP(1-42)NH2, arithmetic mean): 94.4%
EC50 (hGIPR; hGIPR EC50, nM (SEM, n), cAMP, 37° C., 0.1% bovine casein (no human serum albumin)): 0.0107 nM
Emax (hGLP-1R; HEK293, read-out: hGLP-1R Emax, % ± SEM, cAMP, 37° C., 0.1% bovine casein, arithmetic mean): 97.9%
EC50 (hGLP-1R; hGLP-1R EC50, nM (SEM, n), 37° C.): 0.521 nM

CC[C@H](C)[C@H](NC(=O)[C@H](CC(C)C)NC(=O)[C@](C)(Cc1ccc(O)cc1)NC(=O)[C@@H](CCC(=O)O)NC(=O)[C@@H](NC(=O)[C@H](Cc1ccccc1)NC(=O)[C@H](CCC(=O)O)NC(=O)C(C)(C)NC(=O)[C@H](CCC(N)=O)NC(=O)[C@H](C)NC(=O)[C@H](CCCCNC(=O)COCCOCCNC(=O)COCCOCCNC(=O)CCCCCCCCCCCCC(=O)O)NC(=O)[C@H](CCCN)NC(=O)[C@H](CC(=O)O)NC(=O)[C@H](CC(C)C)NC(=O)[C@](C)(CC(C)C)NC(=O)[C@@H](NC(=O)[C@H](CO)NC(=O)[C@H](Cc1ccc2ccccc2c1)NC(=O)[C@H](CC(=O)O)NC(=O)[C@H](CO)NC(=O)[C@@H](NC(=O)[C@](C)(Cc1ccccc1F)NC(=O)[C@@H](NC(=O)CNC(=O)[C@H](CCC(=O)O)NC(=O)C(C)(C)NC(=O)[C@@H](N)Cc1ccc(O)cc1)[C@@H](C)O)[C@@H](C)O)[C@@H](C)CC)[C@@H](C)CC)C(=O)N[C@@H](CCCCNC(=O)COCCOCCNC(=O)COCCOCCNC(=O)CCCCCCCCCCCCC(=O)O)C(=O)NCC(=O)NCC(=O)N1CCC[C@H]1C(=O)N[C@@H](CO)C(=O)N[C@@H](CO)C(=O)NCC(=O)N[C@@H](C)C(=O)N1CCC[C@H]1C(=O)N1CCC[C@H]1C(=O)N1CCC[C@H]1C(=O)N[C@@H](CO)C(N)=O [Example 256]
EC50 (hGCGR; 0.1% bovine casein and 1.0% human serum albumin, 37° C., geometric mean, read-out: hGCGR EC50, nM (SEM, n)): > 9950 nM
EC50 (hGCGR; [1]): > 9950 nM
EC50 (hGIPR; 0.1% bovine casein and 1.0% human serum albumin, 37° C., read-out: hGIPR EC50, nM (SEM, n)): 1.5 nM
Emax (hGIPR; HEK293, 0.1% bovine casein and 1.0% human serum albumin, 37° C., percent of maximal response to GIP(1-42)NH2, read-out: hGIPR Emax, % ± SEM): 75.3%
Emax (hGIPR; HEK293, cAMP, 37° C., 0.1% bovine casein, percent of maximal response to GIP(1-42)NH2, arithmetic mean, read-out: hGIPR Emax, % ± SEM): 97.7%
EC50 (hGIPR; [2]): 0.0175 nM
Emax (hGLP-1R; HEK293, 0.1% bovine casein and 1.0% human serum albumin, 37° C., read-out: hGLP-1R Emax, % ± SEM): 95.5%
Emax (hGLP-1R; [3]): 95.4%
EC50 (hGLP-1R; [4]): 0.249 nM

CC[C@H](C)[C@H](NC(=O)[C@H](CC(C)C)NC(=O)[C@](C)(Cc1ccc(O)cc1)NC(=O)[C@H](CCCCNC(=O)COCCOCCNC(=O)COCCOCCNC(=O)CC[C@H](NC(=O)CCCCCCCCCCCCC(=O)O)C(=O)O)NC(=O)[C@@H](NC(=O)[C@](C)(Cc1ccccc1)NC(=O)[C@H](CCC(=O)O)NC(=O)C(C)(C)NC(=O)[C@H](CCC(N)=O)NC(=O)[C@H](C)NC(=O)[C@H](CCCCNC(=O)COCCOCCNC(=O)COCCOCCNC(=O)CC[C@H](NC(=O)CCCCCCCCCCCCC(=O)O)C(=O)O)NC(=O)[C@H](CCCN)NC(=O)[C@H](CC(=O)O)NC(=O)[C@H](CC(C)C)NC(=O)[C@](C)(CC(C)C)NC(=O)[C@@H](NC(=O)[C@H](CO)NC(=O)[C@@H](NC(=O)[C@H](CC(=O)O)NC(=O)[C@H](CO)NC(=O)[C@@H](NC(=O)[C@](C)(Cc1ccccc1F)NC(=O)[C@@H](NC(=O)CNC(=O)[C@H](CCC(=O)O)NC(=O)C(C)(C)NC(=O)[C@@H](N)Cc1ccc(O)cc1)[C@@H](C)O)[C@@H](C)O)C(C)C)[C@@H](C)CC)[C@@H](C)CC)C(=O)N[C@@H](CCC(=O)O)C(=O)NCC(=O)NCC(=O)N1CCC[C@H]1C(=O)N[C@@H](CO)C(=O)N[C@@H](CO)C(=O)NCC(=O)N[C@@H](C)C(=O)N1CCC[C@H]1C(=O)N1CCC[C@H]1C(=O)N1CCC[C@H]1C(=O)N[C@@H](CO)C(N)=O [Example 118]
EC50 (hGCGR; hGCGR EC50, nM (SEM, n), cAMP, incubated at 37° C., 0.1% bovine casein (no human serum albumin), geometric mean): > 9950 nM
Emax (hGIPR; HEK293, read-out: hGIPR Emax, % ± SEM, percent of maximal response to GIP(1-42)NH2, 37° C., 0.1% bovine casein, arithmetic mean): 94.7%
EC50 (hGIPR; hGIPR EC50, nM (SEM, n), cAMP, incubated at 37° C., 0.1% bovine casein (no human serum albumin)): 0.0547 nM
EC50 (hGLP-1R; hGLP-1R EC50, nM (SEM, n), incubated at 37° C.): 0.437 nM
